The record followed here is US7687055B2, “Method of treating keratinic fibers with creatine, creatinine and/or their salts to strengthen, restructure, harden and stabilize them” (Wella AG, priority 2001, dated 2010).

The nature of experiment [1]: Measurement of the improvement in combability: combing force on hair strands. As to conditions: 1 wt. % creatine in shampoo of Example 2 vs same shampoo without creatine (1.43 N to 1.21 N); t-test significance level 97.5%. An excerpt:
Measurement of the Improvement in Combability The combability of hair is also an important parameter for describing hair quality. Various external influences such as certain cosmetic treatments (bleaching, dyeing permanent waving), weathering and frequent combing and brushing cause a deterioration in hair combability which is attributable to damage to the cuticula. The principle of most methods for measuring combability consists of measuring the force (combing force) required to move a comb through a hair strand under exactly defined boundary conditions. Within the framework of our own study, an automated apparatus was used for this purpose. […] The strands were then repeatedly and automatically combed one after another at a constant rate of speed, and for each combing the combing force N (newton) was recorded as a function of the combing path (strand length). The reported combing force values were finally obtained by averaging the combing forces over the combing path. The lower the combing force, the better is the combability of the hair.

A short description of experiment [2]: Measurement of the repair effect: tensile elongation measurement, strand tensile strength of hair. As to conditions: 1 wt. % creatine in shampoo of Example 2 vs same shampoo without creatine (14.8 to 15.5 cN/tex); t-test significance level 99.9%. How it is done:
Measurement of the Repair Effect
To determine the breaking force for hair, which is an indicator of the structural integrity of the hair cortex and is thus a measure of the degree of damage, common tensile elongation measurements were performed. From each hair strand, 20 individual hairs were selected and the individual hair diameters were measured with a computer-controlled laser micrometer. The force required to break the individual hairs was then determined with a tensile elongation tester (MTT 160/160 Series Miniature Tensile Tester, serial No. 600.95.05.001, DIA-STRON Ltd, England).
From these individual test results, which because of the differing hair diameters are different, the strand tensile strength (STS) was determined by calculating from the individual values the tensile strength for a hair diameter of 0.08 mm (mean diameter) taking into account the hair diameters. By taking into account the hair density, a conversion to the unit for strand tensile strength (cN/tex) was finally made. The higher the numerical value of the strand tensile strength, the lower is the hair damage.

The structures appear in SMILES notation.

For the compound `CN(CC(=O)O)C(=N)N` [creatine, M-amidinosarcosine], in experiment [1], the “reduction of combing force (wet combability)” value is on record as 15.3%. Besides, in experiment [2], the “increase of strand tensile strength” value came out at 4.7%.
